Laboratory results published in patent publication US12122761B2, “2-azaspiro[3.4]octane derivatives as M4 agonists” (NOVARTIS AG, priority 2019, dated 2024).
pEC50: −log10 of the molar value.

Biological target: T1, human cloned CHRM3 receptor (M3_CHO cells) (Homo sapiens, UniProt P20309)
T1 construct: expressed in transfected cells; host or cells: CHO-K1
Experiment: CHRM3 Ca++ Flux Assay (agonist mode, FDSS 7000EX)
Assay type: cell-based
Details: for Emax: Percent Activity measured to EC100 of Carbachol, read-out: M3 FDSS PA; for pEC50: agonist mode, geometric mean if tested more than once, read-out: M3 FDSS EC50
In short: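 Stable CHO-K1 lines (human M3 or M5), calcium-dye loaded ≥1 h, assayed in Ca/Mg-free HBSS + 20 mM HEPES + 2.5 mM probenecid. 11-pt dose response, triplicate, 3 min fluorescence read. 4-parameter regression; % activity vs carbachol EC100.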

T1 sequence (P20309 whole entry): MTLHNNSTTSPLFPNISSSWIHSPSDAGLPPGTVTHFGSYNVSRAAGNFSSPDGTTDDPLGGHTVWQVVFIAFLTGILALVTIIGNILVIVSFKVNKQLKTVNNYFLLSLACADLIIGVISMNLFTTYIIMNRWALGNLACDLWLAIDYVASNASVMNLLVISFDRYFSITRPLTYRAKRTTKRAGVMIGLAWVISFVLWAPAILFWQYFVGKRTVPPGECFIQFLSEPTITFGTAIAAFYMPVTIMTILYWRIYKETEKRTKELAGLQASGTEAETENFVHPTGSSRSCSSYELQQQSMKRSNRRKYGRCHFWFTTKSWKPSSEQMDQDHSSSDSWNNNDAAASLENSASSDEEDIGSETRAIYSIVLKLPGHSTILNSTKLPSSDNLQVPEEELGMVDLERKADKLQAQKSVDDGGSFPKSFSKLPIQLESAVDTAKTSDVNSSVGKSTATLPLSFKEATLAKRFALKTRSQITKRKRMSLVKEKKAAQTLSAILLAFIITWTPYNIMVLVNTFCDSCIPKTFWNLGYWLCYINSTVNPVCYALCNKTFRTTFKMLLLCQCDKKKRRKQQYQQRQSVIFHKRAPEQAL

| Emax [%] | pEC50 | Structure (SMILES) |
| --- | --- | --- |
| 0 | < 4.60 | c1ccc(C2CCN([C@@H]3CCC4(C3)CN(c3nncs3)C4)CC2)c(OC[C@@H]2COCCO2)c1 [Example 3C, 2-((R)-6-(4-(2-(((S)-1,4-dioxan-2-yl)methoxy)phenyl)piperidin-1-yl)-2-azaspiro[3.4]octan-2-yl)-1,3,4-thiadiazole] |
| 0 | < 4.60 | COc1ccccc1C1CCN([C@@H]2CCC3(C2)CN(c2nncs2)C3)CC1 [Example 3D, (R)-2-(6-(4-(2-methoxyphenyl)piperidin-1-yl)-2-azaspiro[3.4]octan-2-yl)-1,3,4-thiadiazole] |
| 0 | < 4.60 | Fc1cccc(C2CCN([C@@H]3CCC4(C3)CN(c3nncs3)C4)CC2)c1OC1COC1 [Example 3E, (R)-2-(6-(4-(3-fluoro-2-(oxetan-3-yloxy)phenyl)piperidin-1-yl)-2-azaspiro[3.4]octan-2-yl)-1,3,4-thiadiazole] |
| 0 | < 4.60 | COCCOc1ccccc1C1CCN([C@@H]2CCC3(C2)CN(c2nncs2)C3)CC1 [Example 3F, (R)-2-(6-(4-(2-(2-methoxyethoxy)phenyl)piperidin-1-yl)-2-azaspiro[3.4]octan-2-yl)-1,3,4-thiadiazole] |
| 0 | < 4.60 | CC(C)(O)COc1ccccc1C1CCN([C@@H]2CCC3(C2)CN(c2nncs2)C3)CC1 [Example 3G, (R)-1-(2-(1-(2-(1,3,4-thiadiazol-2-yl)-2-azaspiro[3.4]octan-6-yl)piperidin-4-yl)phenoxy)-2-methylpropan-2-ol] |
| 0 | < 4.60 | CC(C)(O)CCOc1ccccc1C1CCN([C@@H]2CCC3(C2)CN(c2nncs2)C3)CC1 [Example 3H, (R)-4-(2-(1-(2-(1,3,4-thiadiazol-2-yl)-2-azaspiro[3.4]octan-6-yl)piperidin-4-yl)phenoxy)-2-methylbutan-2-ol] |
| 0 | < 4.60 | COc1ccccc1C1CCN([C@@H]2CCC3(C2)CN(c2ccns2)C3)CC1 [Example 3I, (R)-5-(6-(4-(2-methoxyphenyl)piperidin-1-yl)-2-azaspiro[3.4]octan-2-yl)isothiazole] |
| 0 | < 4.60 | COCCOc1ccccc1C1CCN([C@@H]2CCC3(C2)CN(c2ncns2)C3)CC1 [Example 3J, (R)-5-(6-(4-(2-(2-methoxyethoxy)phenyl)piperidin-1-yl)-2-azaspiro[3.4]octan-2-yl)-1,2,4-thiadiazole] |
| 0 | < 4.60 | CC(C)(O)COc1ccccc1C1CCN([C@@H]2CCC3(C2)CN(c2ncns2)C3)CC1 [Example 3K, (R)-1-(2-(1-(2-(1,2,4-thiadiazol-5-yl)-2-azaspiro[3.4]octan-6-yl)piperidin-4-yl)phenoxy)-2-methylpropan-2-ol] |
| 0 | < 4.60 | CC(C)(O)CCOc1ccccc1C1CCN([C@@H]2CCC3(C2)CN(c2ncns2)C3)CC1 [Example 3L, (R)-4-(2-(1-(2-(1,2,4-thiadiazol-5-yl)-2-azaspiro[3.4]octan-6-yl)piperidin-4-yl)phenoxy)-2-methylbutan-2-ol] |
| 0 | < 4.60 | COc1ccccc1C1CCN([C@@H]2CCC3(C2)CN(c2nc(C)ns2)C3)CC1 [Example 3M, (R)-5-(6-(4-(2-methoxyphenyl)piperidin-1-yl)-2-azaspiro[3.4]octan-2-yl)-3-methyl-1,2,4-thiadiazole] |
| 0 | < 4.60 | Fc1cncc(N2CC3(CC[C@@H](N4CCC(c5ccccc5C5CCOCC5)CC4)C3)C2)c1 [Example 5AA, (R)-2-(5-fluoropyridin-3-yl)-6-(4-(2-(tetrahydro-2H-pyran-4-yl)phenyl)piperidin-1-yl)-2-azaspiro[3.4]octane] |
| 0 | < 4.60 | c1ccc(C2CCN([C@@H]3CCC4(C3)CN(c3cncnc3)C4)CC2)c(C2CCOCC2)c1 [Example 5BB, (R)-2-(pyrimidin-5-yl)-6-(4-(2-(tetrahydro-2H-pyran-4-yl)phenyl)piperidin-1-yl)-2-azaspiro[3.4]octane] |
| 0 | < 4.60 | Fc1ccc(N2CC3(CC[C@@H](N4CCC(c5ccccc5C5CCOCC5)CC4)C3)C2)cn1 [Example 5CC, (R)-2-(6-fluoropyridin-3-yl)-6-(4-(2-(tetrahydro-2H-pyran-4-yl)phenyl)piperidin-1-yl)-2-azaspiro[3.4]octane] |
| 0 | < 4.60 | COc1ccccc1C1CCN([C@@H]2CCC3(C2)CN(c2cnc(C)cn2)C3)CC1 [Example 5DD, (R)-6-(4-(2-methoxyphenyl)piperidin-1-yl)-2-(5-methylpyrazin-2-yl)-2-azaspiro[3.4]octane] |
| 0 | < 4.60 | Cc1nccnc1N1CC2(CC[C@@H](N3CCC(c4ccccc4OCC(C)(C)O)CC3)C2)C1 [Example 5T, (R)-2-methyl-1-(2-(1-(2-(3-methylpyrazin-2-yl)-2-azaspiro[3.4]octan-6-yl)piperidin-4-yl)phenoxy)propan-2-ol] |
| 0 | < 4.60 | CC(C)(O)COc1ccccc1C1CCN([C@@H]2CCC3(C2)CN(c2ncncn2)C3)CC1 [Example 5U, (R)-1-(2-(1-(2-(1,3,5-triazin-2-yl)-2-azaspiro[3.4]octan-6-yl)piperidin-4-yl)phenoxy)-2-methylpropan-2-ol] |
| 0 | < 4.60 | COc1ccc(F)cc1C1CCN([C@@H]2CCC3(C2)CN(c2ccnnc2)C3)CC1 [Example 5V, (R)-6-(4-(5-fluoro-2-methoxyphenyl)piperidin-1-yl)-2-(pyridazin-4-yl)-2-azaspiro[3.4]octane] |
| 0 | < 4.60 | Fc1cccc(C2CCN([C@@H]3CCC4(C3)CN(c3cncnc3)C4)CC2)c1OC1COC1 [Example 5W, (R)-6-(4-(3-fluoro-2-(oxetan-3-yloxy)phenyl)piperidin-1-yl)-2-(pyrimidin-5-yl)-2-azaspiro[3.4]octane] |
| 0 | < 4.60 | COCCOc1ccccc1C1CCN([C@@H]2CCC3(C2)CN(c2cccnn2)C3)CC1 [Example 5X, (R)-6-(4-(2-(2-methoxyethoxy)phenyl)piperidin-1-yl)-2-(pyridazin-3-yl)-2-azaspiro[3.4]octane] |
| 0 | < 4.60 | COCCOc1ccccc1C1CCN([C@@H]2CCC3(C2)CN(c2cnc(C)cn2)C3)CC1 [Example 5Y, (R)-6-(4-(2-(2-methoxyethoxy)phenyl)piperidin-1-yl)-2-(5-methylpyrazin-2-yl)-2-azaspiro[3.4]octane] |
| 0 | < 4.60 | COCCOc1ccccc1C1CCN([C@@H]2CCC3(C2)CN(c2ccnnc2)C3)CC1 [Example 5Z, (R)-6-(4-(2-(2-methoxyethoxy)phenyl)piperidin-1-yl)-2-(pyridazin-4-yl)-2-azaspiro[3.4]octane] |
| 0 | – | COc1ccc(F)cc1C1CCN([C@@H]2CCC3(C2)CN(C(=O)C2COC2)C3)CC1 [Example 6A, (R)-(6-(4-(5-fluoro-2-methoxyphenyl)piperidin-1-yl)-2-azaspiro[3.4]octan-2-yl)(oxetan-3-yl)methanone] |
| 0 | < 4.60 | O=C(C1COC1)N1CC2(CC[C@@H](N3CCC(c4ccc(F)cc4OC(F)F)CC3)C2)C1 [Example 6B, (R)-(6-(4-(2-(difluoromethoxy)-4-fluorophenyl)piperidin-1-yl)-2-azaspiro[3.4]octan-2-yl)(oxetan-3-yl)methanone] |
